Results reported in ChEMBL document CHEMBL5058564, “EUbOPEN Chemogenomics Library 2 (Incucyte)” (2022).

Columns and labels:
Assay type in all cases: toxicity, cell-based
U2OS = experiment: Incucyte cell viability with U2OS; conditions: human, 10 µM, compound concentration 10 uM
Fibroblast = experiment: Incucyte cell viability with human fibroblast; conditions: 10 µM, compound concentration 10 uM
HEK-293T = experiment: Incucyte cell viability with HEK293T; conditions: human, 10 µM, compound concentration 10 uM
[1] = 0 h, replicate number 1, timepoint 0 hours
[2] = 0 h, replicate number 2, timepoint 0 hours
[3] = 12 h, replicate number 1, timepoint 12 hours
[4] = 18 h, replicate number 1, timepoint 18 hours
[5] = 24 h, replicate number 1, timepoint 24 hours
[6] = 6 h, replicate number 1, timepoint 6 hours
[7] = 6 h, replicate number 2, timepoint 6 hours
[8] = 12 h, replicate number 2, timepoint 12 hours
[9] = 24 h, replicate number 2, timepoint 24 hours
[10] = 18 h, replicate number 2, timepoint 18 hours
Note: unitless GR value; below 1 slowed growth and below 0 cell loss.

Row | Compound | Growth Rate (U2OS; [1]) | Growth Rate (U2OS; [3]) | Growth Rate (U2OS; [4]) | Growth Rate (U2OS; [5]) | Growth Rate (Fibroblast; [1]) | Growth Rate (Fibroblast; [2]) | Growth Rate (Fibroblast; [7]) | Growth Rate (Fibroblast; [3]) | Growth Rate (Fibroblast; [8]) | Growth Rate (Fibroblast; [4]) | Growth Rate (Fibroblast; [5]) | Growth Rate (HEK-293T; [1]) | Growth Rate (HEK-293T; [2]) | Growth Rate (HEK-293T; [3]) | Growth Rate (HEK-293T; [4]) | Growth Rate (HEK-293T; [5]) | Growth Rate (HEK-293T; [9]) | Growth Rate (U2OS; [6]) | Growth Rate (HEK-293T; [10]) | Growth Rate (U2OS; [7]) | further results
1 | O=C(O)COc1cccc(-c2ocnc2-c2nc(-c3ccccc3)c(-c3ccccc3)o2)c1 | -0.56 | 0.74 | 0.88 | 1 | 0.04 | 0.64 | 0.07 | 0.59 | 0.91 | 0.64 | 0.59 | 0.53 | -0.17 | 0.79 | 0.67 | 0.9 | 0.98 | – | – | – | Growth Rate (U2OS; [2]): 0.7; Growth Rate (Fibroblast; [6]): 0.49
2 | CCCCC[C@H](O)/C=C/[C@H]1CCC(=O)[C@@H]1CCCCCCC(=O)O | 0.47 | 0.66 | 0.5 | 0.96 | -0.34 | -0.08 | – | – | – | – | 0.96 | 0.81 | -0.24 | 0.56 | 0.7 | 0.77 | 0.67 | 0.51 | 0.73 | – | Growth Rate (HEK-293T; [6]): 0.64; Growth Rate (HEK-293T; [7]): 0.48; Growth Rate (HEK-293T; [8]): 0.7
3 | Cl.O=C(O)c1cc(-c2ccc(C3CCNCC3)cc2)c2ccc(-c3ccc(C(F)(F)F)cc3)cc2c1 | – | 0.79 | 0.6 | 0.6 | -0.16 | -0.95 | 0.67 | -0.12 | 0.42 | -0.01 | 0.06 | -0.99 | -0.98 | 0.71 | 0.29 | 0.2 | 0.49 | 0.77 | 0.68 | 0.7 | Growth Rate (U2OS; [8]): 0.48; Growth Rate (U2OS; [10]): 0.48; Growth Rate (U2OS; [9]): 0.44; Growth Rate (Fibroblast; [6]): -0.7; Growth Rate (Fibroblast; [10]): 0.43; Growth Rate (Fibroblast; [9]): 0.23
4 | Br.Oc1cc2c(cc1O)C(c1ccccc1)CNCC2 (stereo not drawn) | – | 0.47 | 0.55 | 0.98 | 0.09 | -0.21 | – | – | – | – | – | 0.99 | 0.61 | 0.62 | 0.92 | – | 0.67 | 0.49 | 0.37 | 1 | Growth Rate (U2OS; [10]): 0.99; Growth Rate (HEK-293T; [6]): 0.78; Growth Rate (HEK-293T; [7]): -0.1; Growth Rate (HEK-293T; [8]): 0.43
5 | O=C(O)c1cccc(/C=C2/C[C@@H]3[C@@H](/C=C/[C@H](O)C4CCCCC4)[C@H](O)C[C@@H]3O2)c1 | – | 0.59 | 0.9 | – | -0.51 | -0.06 | 0.96 | – | 0.77 | – | – | -0.12 | -0.26 | – | 0.98 | 0.9 | 0.92 | 0.65 | 1 | 0.71 | Growth Rate (U2OS; [2]): 0.48; Growth Rate (U2OS; [8]): 0.94; Growth Rate (Fibroblast; [9]): 0.89
6 | CCCN1CCO[C@H]2c3cc(O)ccc3OC[C@@H]21.Cl | 0.55 | 0.93 | 0.92 | – | 0.77 | 0.29 | – | 0.98 | – | 0.72 | 0.8 | 0.72 | -0.13 | – | – | – | 0.96 | 0.6 | – | – | –
